The values that follow come from patent US20220048869A1, “PHENAZINE-BASED COMPOUND, ELECTROLYTIC LIQUID COMPRISING SAME FOR REDOX FLOW BATTERY, AND REDOX FLOW BATTERY” (LOTTE CHEMICAL CORPORATION, priority 2018, published 2022).

In brackets after ≈: the same amount, converted by molar mass.

The nature of this data set: Solubility (maximum soluble amount) in acetonitrile solution including 0.1 M TBAPF6. The data set is classed as physicochemical. The conditions noted are these: for solubility: acetonitrile solution including 0.1 M TBAPF6, organic solvent or mixture, maximum soluble amount in acetonitrile solution including TBAPF6 at 0.1 M. The protocol:
Each of the phenazine-based compounds provided according to Example 1 and Comparative Example 1 was dissolved in an acetonitrile solution including TBAPF6 at a concentration of 0.1 M, and the maximum soluble amounts of the phenazine-based compounds were identified, and the results are shown in the following Table 1.

Take `CN1c2ccccc2N(C)c2ccccc21` [Comparative Example 1, 5,10-dimethyl-5,10-dihydrophenazine, reference compound]: the solubility was 50 mM (≈ 10.5 mg/mL).

`COCCN1c2ccccc2N(CCOC)c2ccccc21` [Example 1, 5,10-bis(2-methoxyethyl)-5,10-dihydrophenazine]: the solubility is 500 mM (≈ 149 mg/mL). Moreover, the “fold higher solubility in a non-aqueous solvent than DMPZ” value (non-aqueous solvent, relative to DMPZ) is “at least 10 fold”.
